The values that follow come from patent US8008299B2, “Urotensin II receptor antagonists” (Janssen Pharmaceutica, N.V., priority 2007, dated 2011).

The target in assay [1] is T1, rat GPR14 (U-II receptor) (Rattus norvegicus, UniProt P49684).
T1 construct: expressed in transfected cells
T1 sequence (P49684 1-386): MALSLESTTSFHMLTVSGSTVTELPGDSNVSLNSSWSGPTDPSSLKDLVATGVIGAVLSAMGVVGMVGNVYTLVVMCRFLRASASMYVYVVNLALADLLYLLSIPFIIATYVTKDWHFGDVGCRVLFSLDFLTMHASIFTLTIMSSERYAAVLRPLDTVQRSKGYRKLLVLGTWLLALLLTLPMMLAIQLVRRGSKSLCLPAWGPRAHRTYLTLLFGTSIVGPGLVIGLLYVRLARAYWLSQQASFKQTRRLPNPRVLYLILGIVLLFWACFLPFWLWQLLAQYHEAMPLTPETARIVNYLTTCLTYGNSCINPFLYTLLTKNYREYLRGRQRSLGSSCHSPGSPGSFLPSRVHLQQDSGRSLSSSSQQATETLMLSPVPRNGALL
The assay is described as follows: Rat UII Calcium Mobilization FLIPR Assay. It counts as cell-based. Particulars: CHO cells transfected with rat GPR14; antagonist activity after 5 min incubation vs agonist (Ac)-CFWK(2-NaI)C-NH2 at 1 nM. The method, boiled down: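 Fluorescent calcium signals were recorded at room temperature (23° C) by FLIPR. Stable rat U-II receptor CHO lines had been dye-loaded for 1 h at 37° C in pH 7.4 HBSS containing 20 mM HEPES, 0.1% BSA and 2.5 mM probenecid.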
A general note: A change in cytosolic calcium serves as a functional read-out for many receptors and channels.

Assay [2] concerns the target T2, Human UII (U-II receptor) in 6D9 human rhabdomyosarcoma cells (Homo sapiens, UniProt Q9UKP6).
T2 construct: 6D9: isolated by dilution subcloning of RMS13 cells, ATCC® Number: CRL-2061; host or cells: 6D9 human rhabdomyosarcoma cells (subclone of RMS13)
T2 sequence (Q9UKP6 1-389): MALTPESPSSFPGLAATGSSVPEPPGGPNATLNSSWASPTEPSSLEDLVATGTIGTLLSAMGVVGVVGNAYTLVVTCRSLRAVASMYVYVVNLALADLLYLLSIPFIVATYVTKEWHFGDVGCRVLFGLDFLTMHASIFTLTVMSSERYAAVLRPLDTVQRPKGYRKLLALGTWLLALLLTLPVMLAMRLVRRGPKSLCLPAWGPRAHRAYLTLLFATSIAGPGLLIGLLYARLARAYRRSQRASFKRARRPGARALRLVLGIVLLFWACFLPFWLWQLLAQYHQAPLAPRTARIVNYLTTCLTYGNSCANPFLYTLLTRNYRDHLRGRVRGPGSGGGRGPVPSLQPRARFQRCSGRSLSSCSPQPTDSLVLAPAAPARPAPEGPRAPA
The assay is described as follows: Human UII Calcium Mobilization Assay. Format: cell-based.

The target of assay [3] is T3, UT receptors in HSMM (Human Skeletal Muscle Myoblasts) (Homo sapiens, UniProt Q9UKP6).
T3 sequence (Q9UKP6 1-389): T2 sequence (Q9UKP6 1-389)
In words: Human Radioligand Binding Assay ((^125I)-U-II binding to intact HSMM).

[4] abbreviates: 6D9 human rhabdomyosarcoma cells, FLIPR TETRA, average, read-out: Human UII Ca+ Mobilization Average IC50.
Setting [5] is: read-out: Human UII Average Binding Ki, intact HSMM, 0.150 nM (^125I)-U-II, 3 h, 25° C.

Like-named read-outs stand apart in the source and are kept apart here. A value given as a limit tells only on which side of the number the result lay.

By IC50 is commonly meant the point on the concentration scale where inhibition reaches its midpoint. By Ki is commonly meant a dissociation constant, usually derived from enzyme kinetics or from competition with a known ligand. Regarding `CCN1CCN(c2cccc3c2CN(C(CC2CCN(S(=O)(=O)c4cccs4)CC2)c2ccc(OC)c(OC)c2)C3=O)CC1` (stereo not drawn) [Cpd 18, 2-{1-(3,4-dimethoxy-phenyl)-2-[1-(thiophene-2-sulfonyl)-piperidin-4-yl]-ethyl}-4-(4-ethyl-piperazin-1-yl)-2,3-dihydro-isoindol-1-one], the values for the half-inhibitory concentration (IC50) in assay [1] and in assay [2] (setting [4]) were 9 nM and 659 nM, respectively. The same compound had a Ki in assay [3] of 19 nM.

As to `CCN1CCN(c2cccc3c2CN([C@H](CCCN(C)Cc2cccc(F)c2)c2ccc(OC)c(OC)c2)C3=O)CC1` [Cpd 98, 2-{(1R)-1-(3,4-dimethoxy-phenyl)-4-[(3-fluoro-benzyl)-methyl-amino]-butyl}-4-(4-ethyl-piperazin-1-yl)-2,3-dihydro-isoindol-1-one], the results for the IC50 in assay [1] and in assay [2] (setting [4]) were 4 nM and 105 nM, respectively. Also, the inhibitory constant (Ki) in assay [3] came to 59 nM.

Consider `CCN1CCN(c2cccc3c2CN([C@H](CCCNS(=O)(=O)c2cccs2)c2ccc(OC)c(OC)c2)C3=O)CC1` [Cpd 84, thiophene-2-sulfonic acid {(4R)-4-(3,4-dimethoxy-phenyl)-4-[4-(4-ethyl-piperazin-1-yl)-1-oxo-1,3-dihydro-isoindol-2-yl]-butyl}-amide], for which the values for the IC50 in assay [1] and in assay [2] (setting [4]) were 1 nM and 8 nM, respectively. The Ki in assay [3] (setting [5]) amounted to 4 nM.

In the case of `CCN1CCN(c2cccc3c2CN([C@H](CCCSc2cccc[n+]2[O-])c2ccc(OC)c(OC)c2)C3=O)CC1` [Cpd 31, {(4R)-4-(3,4-dimethoxy-phenyl)-4-[4-(4-ethyl-piperazin-1-yl)-1-oxo-1,3-dihydro-isoindol-2-yl]-butylsulfanyl}-pyridine 1-oxide], the values for the IC50 in assay [1] and in assay [2] (setting [4]) were 11 nM and 602 nM, respectively. In assay [3], this compound gave a Ki of 135 nM.

For `CCN1CCN(c2cccc3c2CN([C@H](CCCNc2nc(OC)cc(OC)n2)c2ccc(OC)c(OC)c2)C3=O)CC1` [Cpd 10, 2-[(1R)-1-(3,4-dimethoxy-phenyl)-4-(4,6-dimethoxy-pyrimidin-2-ylamino)-butyl]-4-(4-ethyl-piperazin-1-yl)-2,3-dihydro-isoindol-1-one], the values for the concentration for half-maximal inhibition (IC50) in assay [1] and in assay [2] (setting [4]) were 4 nM and 617 nM, respectively. In assay [3], this compound showed a Ki of 81 nM.

As to `CCN1CCN(c2cccc3c2CN([C@H](CCCNS(=O)(=O)c2cnc(C)n2C)c2ccc(OC)c(OC)c2)C3=O)CC1` [Cpd 49, 2,3-dimethyl-3H-imidazole-4-sulfonic acid {(4R)-4-(3,4-dimethoxy-phenyl)-4-[4-(4-ethyl-piperazin-1-yl)-1-oxo-1,3-dihydro-isoindol-2-yl]-butyl}-amide], the IC50 was 2 nM in assay [1] and 64 nM in assay [2] (setting [4]). The same compound gave a Ki in assay [3] of 13 nM.

As to `CCN1CCN(c2cccc3c2CN([C@H](CCCNC(=O)c2cccs2)c2ccc(OC)c(OC)c2)C3=O)CC1` [Cpd 81, thiophene-2-carboxylic acid {(4R)-4-(3,4-dimethoxy-phenyl)-4-[4-(4-ethyl-piperazin-1-yl)-1-oxo-1,3-dihydro-isoindol-2-yl]-butyl}-amide], the IC50 in assay [1] was determined as 7 nM; in assay [2], 137 nM. In addition, the Ki in assay [3] (setting [5]) was determined as 18 nM.

For `CCN1CCN(c2cccc3c2CN([C@H](CCCNC(=O)c2cn[nH]c2)c2ccc(OC)c(OC)c2)C3=O)CC1` [Cpd 79, 1H-pyrazole-4-carboxylic acid {(4R)-4-(3,4-dimethoxy-phenyl)-4-[4-(4-ethyl-piperazin-1-yl)-1-oxo-1,3-dihydro-isoindol-2-yl]-butyl}-amide], the half-inhibitory concentration (IC50) in assay [1] is 6 nM; in assay [2] (setting [4]), 133 nM. In assay [3], this compound returned a Ki of 39 nM.

As to `CCN1CCN(c2cccc3c2CN([C@H](CCCNS(=O)(=O)c2cn(C)cn2)c2ccc(OC)c(OC)c2)C3=O)CC1` [Cpd 53, 1-methyl-1H-imidazole-4-sulfonic acid {(4R)-4-(3,4-dimethoxy-phenyl)-4-[4-(4-ethyl-piperazin-1-yl)-1-oxo-1,3-dihydro-isoindol-2-yl]-butyl}-amide], the IC50 in assay [1] is 53 nM; in assay [2] (setting [4]), 278 nM. This compound showed a Ki in assay [3] of 56 nM.

Take `CCN1CCN(c2cccc3c2CN([C@H](CCCN(C)S(=O)(=O)N(C)C)c2ccc(OC)c(OC)c2)C3=O)CC1` [Cpd 1, dimethylaminosulfonic acid {(4R)-4-(3,4-dimethoxy-phenyl)-4-[4-(4-ethyl-piperazin-1-yl)-1-oxo-1,3-dihydro-isoindol-2-yl]-butyl}-methyl-amide]: the results for the IC50 in assay [1] and in assay [2] (setting [4]) were 7 nM and 204 nM, respectively. The compound also displayed a Ki in assay [3] of 55 nM.

Take `CCN1CCN(c2cccc3c2CN([C@H](CCCNC(=O)Nc2ccccc2)c2ccc(OC)c(OC)c2)C3=O)CC1` [Cpd 66, 1-{(4R)-4-(3,4-dimethoxy-phenyl)-4-[4-(4-ethyl-piperazin-1-yl)-1-oxo-1,3-dihydro-isoindol-2-yl]-butyl}-3-phenyl-urea]: the 50% inhibitory concentration (IC50) is 23 nM in assay [1] and 842 nM in assay [2] (setting [4]). In assay [3], this compound had a Ki of 84 nM.

On to `CCN1CCN(c2cccc3c2CN([C@H](CCCOCc2c(F)cccc2F)c2ccc(OC)c(OC)c2)C3=O)CC1` [Cpd 46, 2-[(1R)-4-(2,6-difluoro-benzyloxy)-1-(3,4-dimethoxy-phenyl)-butyl]-4-(4-ethyl-piperazin-1-yl)-2,3-dihydro-isoindol-1-one], for which the IC50 in assay [1] is 7730 nM; in assay [2] (setting [4]), above 10000 nM. This compound also displayed a Ki in assay [3] above 300 nM.

In the case of `CCN1CCN(c2cccc3c2CN([C@H](CCCNc2ccccc2)c2ccc(OC)c(OC)c2)C3=O)CC1` [Cpd 40, 2-[(1R)-1-(3,4-dimethoxy-phenyl)-4-phenylamino-butyl]-4-(4-ethyl-piperazin-1-yl)-2,3-dihydro-isoindol-1-one], the values for the IC50 in assay [1] and in assay [2] (setting [4]) were 10 nM and 370 nM, respectively. In assay [3], this compound had a Ki of 75 nM.

As for `COc1ccc([C@@H](CCCNc2nccc(C(F)(F)F)n2)N2Cc3c(cccc3N3CCN(Cc4ccccc4)CC3)C2=O)cc1OC` [Cpd 5, 4-(4-benzyl-piperazin-1-yl)-2-[(1R)-1-(3,4-dimethoxy-phenyl)-4-(4-trifluoromethyl-pyrimidin-2-ylamino)-butyl]-2,3-dihydro-isoindol-1-one], the IC50 in assay [1] was 16 nM; in assay [2] (setting [4]), 857 nM. Further, the inhibition constant Ki in assay [3] came out at 45 nM.

On to `CCN1CCN(c2cccc3c2CN([C@H](CCCNc2nccc(C)n2)c2ccc(OC)c(OC)c2)C3=O)CC1` [Cpd 23, 2-[(1R)-1-(3,4-dimethoxy-phenyl)-4-(4-methyl-pyrimidin-2-ylamino)-butyl]-4-(4-ethyl-piperazin-1-yl)-2,3-dihydro-isoindol-1-one], for which the IC50 in assay [1] turned out to be 19 nM; in assay [2] (setting [4]), 316 nM. Moreover, the Ki in assay [3] amounted to 13 nM.

Turning to `COc1ccc([C@@H](CCCN(C)S(=O)(=O)c2cccs2)N2Cc3c(cccc3N3CCN(C4CC4)CC3)C2=O)cc1OC` [Cpd 7, thiophene-2-sulfonic acid [(4R)-4-[4-(4-cyclopropyl-piperazin-1-yl)-1-oxo-1,3-dihydro-isoindol-2-yl]-4-(3,4-dimethoxy-phenyl)-butyl]-methyl-amide], the results for the IC50 in assay [1] and in assay [2] were 13 nM and 1170 nM, respectively. For the same compound, the Ki in assay [3] (setting [5]) was 59 nM.

For `CCN1CCN(c2cccc3c2CN([C@H](CCCNS(=O)(=O)O)c2ccc(OC)c(OC)c2)C3=O)CC1` [Cpd 71, {(4R)-4-(3,4-dimethoxy-phenyl)-4-[4-(4-ethyl-piperazin-1-yl)-1-oxo-1,3-dihydro-isoindol-2-yl]-butyl}-sulfamic acid], the IC50 in assay [1] came out at 457 nM; in assay [2] (setting [4]) it was 1790 nM. The compound further showed an inhibition constant Ki in assay [3] above 300 nM.

With `CCN1CCN(c2cccc3c2CN([C@H](CCCn2ccnc2)c2ccc(OC)c(OC)c2)C3=O)CC1` [Cpd 32, 2-[(1R)-1-(3,4-dimethoxy-phenyl)-4-imidazol-1-yl-butyl]-4-(4-ethyl-piperazin-1-yl)-2,3-dihydro-isoindol-1-one], the IC50 in assay [1] turned out to be 45 nM; in assay [2] (setting [4]) it was 2040 nM. In assay [3], the affinity, expressed as Ki, was 157 nM.

Take `CCN1CCN(c2cccc3c2CN([C@H](CCCn2ncnn2)c2ccc(OC)c(OC)c2)C3=O)CC1` [Cpd 15, 2-[(1R)-1-(3,4-dimethoxy-phenyl)-4-tetrazol-2-yl-butyl]-4-(4-ethyl-piperazin-1-yl)-2,3-dihydro-isoindol-1-one]: the IC50 is 57 nM in assay [1] and 1590 nM in assay [2] (setting [4]). In assay [3], this compound showed a Ki of 172 nM.
